Test results taken from patent publication US20090156594A1, “HETEROCYCLIC KINASE MODULATORS” (SGX Pharmaceuticals, Inc., priority 2007, published 2009).

How the values were obtained:
[1] = biological target: T1, c-MET (Homo sapiens, UniProt P08581); assay: MET luminescence-based enzyme assay (Kinase-Glo); format: biochemical; settings: MET kinase domain, 10 μM ATP, 60 min at 21° C.
T1 construct: expressing the kinase domain of human Met; 6x Histidine tag (TEV-cleavable) (cleaved yes); made in house; host or cells: Sf9 insect cells
T1 sequence (P08581 1078-1345 limits assumed): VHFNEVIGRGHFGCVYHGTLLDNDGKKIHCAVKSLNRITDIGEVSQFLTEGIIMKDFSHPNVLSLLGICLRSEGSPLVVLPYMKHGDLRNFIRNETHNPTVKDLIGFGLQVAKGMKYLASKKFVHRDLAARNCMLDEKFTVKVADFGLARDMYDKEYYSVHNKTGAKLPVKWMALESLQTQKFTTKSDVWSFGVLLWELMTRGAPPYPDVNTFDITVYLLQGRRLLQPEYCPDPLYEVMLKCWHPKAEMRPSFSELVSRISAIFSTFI
Protocol: Screening data was evaluated using the equation: Z′=1-[3*(σ++σ−)/|μ+−μ−|] […] The subscript designates positive or negative controls. The Z′ score for a robust screening assay should be ≧0.50. The typical threshold=μ+−3*σ+. Any value that falls below the threshold was designated a “hit”.
MET Luminescence-Based Enzyme Assay
MET kinase (see below), Kinase-Glom (Promega Cat#V6712).
(diluted 50 μl into total of 10 ml miliQH2O daily=50 μM ATP working stock); 1% BSA (1 g BSA in 100 ml 0.1M HEPES, pH 7.5, stored at −20° C.), 100 mM MgCl2; 200 μM Staurosporine, 2× Kinase-Glo™ reagent (made fresh or stored at −20° C.).
Standard Assay Setup for 384-well format (20 μl kinase reaction, 40 μl detection reaction): 10 mM MgCl2; 0.3 mg/mil poly Glu-Tyr; 0.1% BSA; 1 μl test compound (in DMSO); 0.4 μg/ml MET kinase; 10 μM ATP; 100 mM HEPES buffer. Positive controls contained DMSO with no test compound. Negative controls contained […] staurosporine. The kinase reactions were initiated at time t=0 by the addition of ATP. Kinase reactions were incubated at 21° C. for 60 min, then 20 μl of Kinase-Glo™ reagent were added to each well to quench the kinase reaction and initiate the luminescence reaction. After a 20 min incubation at 21° C., the luminescence was detected in a plate-reading luminometer.
The cell pellets produced from half of a 12 L Sf9 insect cell culture expressing the kinase domain of human Met were resuspended in a buffer containing 50 mM Tris-HCl pH 7.7 and 250 mM NaCl, in a volume of approximately 40 ml per 1 L of original culture. […] The suspension was stirred for 1 hour at 4° C. Debris was removed by centrifugation for 30 minutes at 39,800×g at 4° C. […] The sample was then poured into a drip column at 4° C. and washed with 10 column volumes of 50 mM Tris-HCl pH 7.8, 500 mM NaCl, 10% Glycerol, […], and 10 mM Methionine. The protein was eluted using a step gradient with two column volumes each of the same buffer containing 50 mM, 200 mM, and 500 mM Imidazole, sequentially. […] The step gradient was run with 15% and then 80% of the B-side (A-side=50 mM Tris-HCl pH 7.8, 500 mM NaCl, 10% Glycerol, 10 mM Imidazole, and 10 mM Methionine; B-side=50 mM Tris-HCl pH 7.8, […], 10% Glycerol, 500 mM Imidazole, and 10 mM Methionine) for 4 column volumes each.

[2] = system: GTL16 cells; assay: 96-well XTT cell survival assay (GTL16 cells); format: cell-based; settings: Homo sapiens, GTL 16, 72 hours
Protocol: GTL16 cells were maintained in DMEM Medium supplemented with 10% fetal bovine serum (FBS) 2 mM L-Glutamine and 100 units penicillin/100 μg streptomycin, at 37° C. in 5% CO2.
Compounds were Tested in the Following Assays in Duplicate.
96-well XTT assay (GTL16 cells): One day prior to assay the growth media was aspirated off and assay media was added to cells. On the day of the assay, the cells were grown in assay media containing various concentrations of compounds (duplicates) on a 96-well flat bottom plate for 72 hours at 37° C. in 5% CO2. The starting cell number was 5000 cells per well and volume was 120 μl. At the end of the 72-hour incubation, 40 μl of XTT labeling mixture (50:1 solution of sodium 3′-[1-(phenylaminocarbonyl)-3,4-tetrazolium]-bis(4-methoxy-6-nitro) benzene sulfonic acid hydrate and Electron-coupling reagent: PMS (N-methyl dibenzopyrazine methyl sulfate) were added to each well of the plate. After an additional 5 hours of incubation at 37° C., the absorbance reading at 450 nm with a background correction of 650 nm was measured with a spectrophotometer.

Row | SMILES | IC50 [1] [nM] | IC50 [2] [nM]
1 | Cc1nn2c(Cc3cc4cccnc4cc3F)nnc2s1 | 100 to 1000 | 100 to 1000
2 | NCc1ccc(-c2cnc3nnc(Cc4ccc5ncccc5c4)n3c2)cc1 | > 10000 | –
3 | Cn1cc(-c2cnc3ccc(Cc4nnc5sc([C@@H](N)CC6CC6)nn45)cc3c2)cn1 | < 100 | –
4 | Brc1cnc2ccc(Cc3nnc4sc(CN5CCCC5)nn34)cc2c1 | 100 to 1000 | –
5 | c1ccc(-c2nn3c(Cc4ccc5ncccc5c4)nnc3s2)cc1 | < 100 | 1000 to 10000
6 | COCc1nn2c(Cc3ccc4ncc(-c5cnn(C)c5)cc4c3)nnc2s1 | < 100 | ≤ 100
7 | Cn1cc(-c2nn3c(Cc4ccc5ncccc5c4)nnc3s2)cn1 [6-[6-(1-Methyl-1H-pyrazol-4-yl)-[1,2,4]triazolo[3,4-b][1,3,4]thiadiazol-3-ylmethyl]-quinoline] | – | 100 to 1000
8 | CS(=O)(=O)c1cccc(-c2cnc3nnc(Cc4ccc5ncccc5c4)n3c2)c1 | > 10000 | –
9 | CN(C)Cc1nn2c(Cc3c(F)cc4ncc(Br)cc4c3F)nnc2s1 | 1000 to 10000 | –
10 | Cn1cc(-c2nn3c(Cc4c(F)cc5ncccc5c4F)nnc3s2)cn1 | < 100 | ≤ 100
11 | Cc1nn2c(Cc3c(F)cc4ncc(-c5cnn(C)c5)cc4c3F)nnc2s1 | < 100 | ≤ 100
12 | Cn1cc(-c2cnc3ccc(Cc4nnc5sc(-c6cccnc6)nn45)cc3c2)cn1 [drawing 184] | – | ≤ 100
13 | CCc1nn2c(Cc3ccc4ncc(-c5cnn(C)c5)cc4c3)nnc2s1 | < 100 | ≤ 100
14 | CN[C@H](C)c1nn2c(Cc3ccc4ncc(-c5cnn(C)c5)cc4c3)nnc2s1 | 100 to 1000 | 100 to 1000
15 | CN(C)Cc1nn2c(Cc3ccc4ncc(-c5cnn(C)c5)cc4c3)nnc2s1 | < 100 | ≤ 100
16 | Cn1cc(-c2cnc3ccc(Cc4nnc5sc(C6CCC6)nn45)cc3c2)cn1 | < 100 | ≤ 100
17 | Fc1cc2ncccc2cc1Cc1nnc2sc(C(F)(F)F)nn12 | 1000 to 10000 | –
18 | Cc1nn2c(Cc3c(F)cc4ncc(Br)cc4c3F)nnc2s1 | 100 to 1000 | 100 to 1000
19 | OCc1nn2c(Cc3ccc4ncc(Br)cc4c3)nnc2s1 | > 10000 | –
20 | Cn1cc(-c2cnc3ccc(Cc4nnc5sc(-c6cccnc6)nn45)cc3c2)cn1 [drawing 217] | < 100 | –
21 | Fc1cc2ncccc2cc1Cc1nnc2sc(-c3ncc[nH]3)nn12 | 100 to 1000 | 1000 to 10000
22 | Cc1nn2c(Sc3ccc4ncccc4c3)nnc2s1 | 100 to 1000 | –
23 | c1ccc(-c2cn3c(Cc4ccc5ncccc5c4)nnc3s2)cc1 [6-(6-Phenyl-thiazolo[2,3-c][1,2,4]triazol-3-ylmethyl)-quinoline] | 1000 to 10000 | –
24 | Cn1cc(-c2cnc3ccc(Cc4nnc5sc(CNCC(F)(F)F)nn45)cc3c2)cn1 | < 100 | ≤ 100
25 | C[C@H](N)c1nn2c(Cc3ccc4ncc(-c5cnn(C)c5)cc4c3)nnc2s1 | 100 to 1000 | –
26 | Cn1cc(-c2cnc3ccc(Cc4nnc5sc([C@@H](N)CC6CCCCC6)nn45)cc3c2)cn1 | 100 to 1000 | –

Row | SMILES | IC50 [1] [nM] | IC50 [2] [nM]
27 | Cc1nn2c(Cc3ccc4ncc(-c5cnn(C)c5)cc4c3F)nnc2s1 | < 100 | ≤ 100
28 | C[C@@H](N)c1nn2c(Cc3ccc4ncc(-c5cnn(C)c5)cc4c3)nnc2s1 | < 100 | 100 to 1000
29 | c1cnc2ccc(Cc3nnc4sc(NC5CC5)nn34)cc2c1 [cyclopropyl-(3-quinolin-6-ylmethyl-[1,2,4]triazolo[3,4-b][1,3,4]thiadiazol-6-yl)-amine] | < 100 | ≤ 100
30 | CCNCc1nn2c(Cc3ccc4ncc(-c5cnn(C)c5)cc4c3)nnc2s1 | < 100 | 100 to 1000
31 | Cn1cc(-c2cnc3ccc(Cc4nnc5nccnn45)cc3c2)cn1 [3-(1-Methyl-1H-pyrazol-4-yl)-6-[1,2,4]triazolo[4,3-b][1,2,4]triazin-3-ylmethyl-quinoline] | < 100 | ≤ 100
32 | Cn1cc(-c2cnc3ccc(Cc4nnc5sc(CNC6CC6)nn45)cc3c2)cn1 | < 100 | ≤ 100
33 | Cc1nn2c(Sc3ccc4ncc(-c5cnn(C)c5)cc4c3)nnc2s1 | < 100 | ≤ 100
34 | CCc1nn2c(Sc3ccc4ncc(-c5cnn(C)c5)cc4c3)nnc2s1 | < 100 | 100 to 1000
35 | Cc1nn2c(Cc3ccc4ncc(-c5cnn(C)c5)cc4c3)nnc2s1 | < 100 | ≤ 100
36 | CNCc1nn2c(Cc3ccc4ncc(-c5cnn(C)c5)cc4c3)nnc2s1 | < 100 | ≤ 100
37 | COCCc1nn2c(Sc3ccc4ncc(-c5cnn(C)c5)cc4c3)nnc2s1 | < 100 | ≤ 100
38 | Cn1cc(-c2cnc3ccc(Cc4nnc5sc(CNCCO)nn45)cc3c2)cn1 | < 100 | 100 to 1000
39 | Cn1cc(-c2cnc3ccc(Cc4nnc5sc([C@@H]6CCCN6)nn45)cc3c2)cn1 | 100 to 1000 | –
40 | Cn1cc(-c2cnc3ccc(Cc4nnc5sc(CNCCF)nn45)cc3c2)cn1 | < 100 | ≤ 100
41 | CC(C)NCc1nn2c(Cc3ccc4ncc(-c5cnn(C)c5)cc4c3)nnc2s1 | < 100 | ≤ 100
42 | Cn1cc(-c2cnc3ccc(Cc4nnc5sc(CNCCN6CCOCC6)nn45)cc3c2)cn1 | < 100 | 100 to 1000
43 | Cn1cc(-c2cnc3ccc(Cc4nnc5sc(CNCC6CC6)nn45)cc3c2)cn1 | < 100 | ≤ 100
44 | C[C@@H](O)[C@@H](N)c1nn2c(Cc3ccc4ncc(-c5cnn(C)c5)cc4c3)nnc2s1 | 1000 to 10000 | –
45 | Cn1cc(-c2nn3c(Cc4ccc5ncccc5c4)cnc3s2)cn1 [6-[2-(1-methyl-1H-pyrazol-4-yl)-imidazo[2,1-b][1,3,4]thiadiazol-5-ylmethyl]-quinoline] | < 100 | 100 to 1000
46 | c1ccc(-c2cn3c(Sc4ccc5ncccc5c4)nnc3s2)cc1 | 100 to 1000 | 1000 to 10000
47 | Cn1cc(-c2cnc3ccc(Cc4nnc5sc([C@H](N)CC6CCCCC6)nn45)cc3c2)cn1 | < 100 | 100 to 1000
48 | Cn1cc(-c2nn3c(Cc4cc5cccnc5cc4F)nnc3s2)cn1 | < 100 | ≤ 100
49 | Cn1cc(-c2cnc3ccc(Cc4nnc5sc(C6CC6)nn45)cc3c2)cn1 | < 100 | ≤ 100
50 | Cn1cc(-c2cnc3ccc(Cc4nnc5sc(C(N)Cc6cncn6C)nn45)cc3c2)cn1 (stereo not shown) | 100 to 1000 | –
51 | Cn1cc(-c2nn3c(Sc4ccc5ncccc5c4)nnc3s2)cn1 [6-[6-(1-Methyl-1H-pyrazol-4-yl)-[1,2,4]triazolo[3,4-b][1,3,4]thiadiazol-3-ylsulfanyl]-quinoline] | < 100 | 100 to 1000
